“Also recorded” adds a separate entry of the source.
Assays:
Format in all cases: cell-based, human
CD4^+ T cells [1] = assay: Proliferation of CFSE-labeled CD4+ T cells stimulated with anti-CD3 and anti-CD28 in the presence of TLR ligands; conditions: compared to control
Description: (§1) Cell isolation and FACS sorting of T cell populations. Peripheral blood mononuclear cells (PBMC) were isolated from healthy donors by Ficoll Hypaque gradient centrifugation. Total CD4^+ T cells were isolated by negative selection using CD4^+ T cell isolation kit (StemCell Technologies, Vancouver, BC) and stained for fluorescence-activated cell sorting (FACS) with the following antibodies: anti-CD45RO (clone UCHL1), CD45RA (clone H1100), CD25 (clone M-A251) (all from BD Biosciences) and CD127 (clone eBioRDR5) from eBioscience (San Diego, Calif.). The Treg (CD4^+CD25^hiCD127^low/neg) memory T cell (CD4^+CD45RA^−CD45RO^+CD25^low/neg+) and naïve T cell (CD4^+CD45RA^+CD45RO^−CD25^low/neg) populations were sorted on a FACS Aria (BD Biosciences). Unless specified, CD4^+ T cells used in the experiments were Treg-depleted CD4^+ T cells and they were sorted as CD4^+CD25^pos/lowCD127^+. The purity of the sorted CD4^+ T cell population was >98% as assessed by CD3 and CD4 staining after sort. CD14^+ cells were isolated by positive selection using EasySep™ Human CD14 Positive Selection Kit (StemCell Technologies).
(§2) Cell activation and intracellular staining.
While examining the costimulatory role of TLR on CD4^+ T cells, it was unexpectedly discovered that entry of CD4^+ cells into cell cycle with T cell receptor cross-linking and anti-CD28 was blocked by TLR7 engagement. Specifically, CD4^+ T cells were stimulated with anti-CD3 and anti-CD28 in the presence of different TLR agonists followed by analysis of proliferation and cytokine secretion.

NFAT1 = NFAT1 dephosphorylation, Western blot; conditions: 0, 45 and 90 minutes; confirmed with phospho-specific antibody, 40 minutes
Protocol: Western blotting. Total protein extracts were isolated with M-PER protein extraction kit (Thermo Scientific) and quantified with a BCA kit (Thermo Scientific). 20 μg of protein extract were loaded per lane, separated on a 10% SDS-PAGE gel and transferred to a nitrocellulose membrane. anti-NFAT1 and anti-β-actin were obtained from Cell Signaling Technology. Anti-pNFAT1 (Ser213/217/229) antibody was obtained from Santa Cruz Biotechnology (Dallas, Tex.). Primary antibodies were detected by secondary anti-rabbit-HRP-conjugated (Cell Signaling Technology) and images were obtained in a CCD camera instrument. Bands were quantified with QuantityOne software.
An immediate consequence of increased concentration of intracellular calcium is the activation of the nuclear factor of activated T-cells (NFAT1), a transcription factor that is highly phosphorylated in resting cells and becomes dephosphorylated by the calcium/calmodulin-dependent phosphatase calcineurin when the concentration of intracellular calcium is increased. To examine whether IMQ stimulation induced the dephosphorylation of NFAT1, we stimulated CD4^+ T cells with IMQ and purified total protein extracts at 0, 45 and 90 minutes (FIG. 25A).

CD4^+ T cells [2] = assay: Phosphorylation status of signaling molecules by flow cytometry; Jun gene expression
Description: TLR7 signaling has predominantly been studied in APC where it is linked to IRF7, NFκB and JNK activation through either MyD88/IRAK4-dependent or -independent pathways. In order to examine the consequences of TLR7 signaling on CD4^+ T cells in relation to ‘conventional’ TLR signaling, ex vivo isolated CD4^+ T cells from healthy individuals were stimulated with IMQ and the phosphorylation status of IRAK4, JNK, NFkB (p65), p38 MAPK and IRF7 was examined by flow cytometry (FIG. 31A). […] One of the targets that are phosphorylated by activated JNK is Jun, a component of AP-1, which is an essential transcription factor involved in costimulatory signal transduction. It was determined if inhibition of JNK activity by IMQ could explain, at least in part, the anergic phenotype observed in CD4^+ T cells after IMQ stimulation in the presence of full stimulation with TCR and costimulatory signals. To test this hypothesis, CD4^+ T cells were stimulated with PMA and Ionomycin in the presence or absence of IMQ, and the phosphorylation status of JNK and Jun was examined at different time points. NFκB and p38 were used as positive controls (FIGS. 31B and 31C).

CD14^+ monocytes = assay: Activation of CD14+ monocytes (surface staining, cytokine ELISA)
Description: as §1, §2
Enzyme-linked immunosorbent assay.

[3] = with PMA and Ionomycin stimulation
[4] = with PMA and Ionomycin stimulation, listed as IMQ

CC(C)Cn1cnc2c(N)nc3ccccc3c21 [Imiquimod]
proliferation of CD4+ T cells (frequency of proliferating cells) (CD4^+ T cells [1]): dramatically reduced
phosphorylation state of NFAT1 (NFAT1): dephosphorylated
phosphorylation of IRAK4 (CD4^+ T cells [2]; IMQ alone vs vehicle): induced
phosphorylation of IRF7 (CD4^+ T cells [2]; IMQ alone vs vehicle): induced
phosphorylation of NFκB (CD4^+ T cells [2]; IMQ alone vs vehicle): induced
phosphorylation of p38 (CD4^+ T cells [2]; IMQ alone vs vehicle): induced
phosphorylated JNK (CD4^+ T cells [2]; IMQ alone vs vehicle, basal levels): decreased the basal levels
Jun gene expression (CD4^+ T cells [2]; after stimulation): decreased
NFκB phosphorylation (CD4^+ T cells [2]; [3]): did not show an additive effect
p38 phosphorylation levels (CD4^+ T cells [2]; [3]): further increased
JNK phosphorylation (CD4^+ T cells [2]; [4]): inhibited; also recorded: decreased
Jun phosphorylation (CD4^+ T cells [2]; [4]): decreased
CD25 protein expression (CD14^+ monocytes; 5 μg/ml IMQ, 24 hours): upregulation
CD80 protein expression (CD14^+ monocytes; 5 μg/ml IMQ, 24 hours): upregulation
CD86 protein expression (CD14^+ monocytes; 5 μg/ml IMQ, 24 hours): downregulation
HLA-DR protein expression (CD14^+ monocytes; 5 μg/ml IMQ, 24 hours): upregulation
IL-6 secretion (CD14^+ monocytes; ELISA): secreted significant levels
IL-10 secretion (CD14^+ monocytes; ELISA): decreased
IL-113 secretion (CD14^+ monocytes; ELISA): secreted significant levels
TNFα secretion (CD14^+ monocytes; ELISA): secreted significant levels
